This experiment has as its target human F508del-CFTR (Homo sapiens, UniProt P13569, DEL508-508). Nature of the experiment: F508del-CFTR cell surface expression (corrector activity), DiscoveRx ß-galactosidase complementation chemiluminescence assay in recombinant U2OS cell line.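 As to all read-outs here: U2OS cells co-expressing ProLink-tagged F508del-CFTR and a membrane-anchored enzyme acceptor, where more surface CFTR restores β-galactosidase activity measured by chemiluminescence.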 Conditions: for EC50: EC50, F508del-CFTR cell surface expression, geomean values; for Emax: U2OS, arithmetic mean values.
Setting [1] is: U2OS cell line, 16h compound incubation.
[2] abbreviates: in relation to the Emax of the corrector lumacaftor (=100%), U2OS cell line, 16h compound incubation.
[3] abbreviates: U2OS cells, 16h compound incubation.
[4] abbreviates: in relation to Emax of corrector lumacaftor (=100%).

human F508del-CFTR, sequence (P13569 with tags, fused parts or gaps DEL508-508): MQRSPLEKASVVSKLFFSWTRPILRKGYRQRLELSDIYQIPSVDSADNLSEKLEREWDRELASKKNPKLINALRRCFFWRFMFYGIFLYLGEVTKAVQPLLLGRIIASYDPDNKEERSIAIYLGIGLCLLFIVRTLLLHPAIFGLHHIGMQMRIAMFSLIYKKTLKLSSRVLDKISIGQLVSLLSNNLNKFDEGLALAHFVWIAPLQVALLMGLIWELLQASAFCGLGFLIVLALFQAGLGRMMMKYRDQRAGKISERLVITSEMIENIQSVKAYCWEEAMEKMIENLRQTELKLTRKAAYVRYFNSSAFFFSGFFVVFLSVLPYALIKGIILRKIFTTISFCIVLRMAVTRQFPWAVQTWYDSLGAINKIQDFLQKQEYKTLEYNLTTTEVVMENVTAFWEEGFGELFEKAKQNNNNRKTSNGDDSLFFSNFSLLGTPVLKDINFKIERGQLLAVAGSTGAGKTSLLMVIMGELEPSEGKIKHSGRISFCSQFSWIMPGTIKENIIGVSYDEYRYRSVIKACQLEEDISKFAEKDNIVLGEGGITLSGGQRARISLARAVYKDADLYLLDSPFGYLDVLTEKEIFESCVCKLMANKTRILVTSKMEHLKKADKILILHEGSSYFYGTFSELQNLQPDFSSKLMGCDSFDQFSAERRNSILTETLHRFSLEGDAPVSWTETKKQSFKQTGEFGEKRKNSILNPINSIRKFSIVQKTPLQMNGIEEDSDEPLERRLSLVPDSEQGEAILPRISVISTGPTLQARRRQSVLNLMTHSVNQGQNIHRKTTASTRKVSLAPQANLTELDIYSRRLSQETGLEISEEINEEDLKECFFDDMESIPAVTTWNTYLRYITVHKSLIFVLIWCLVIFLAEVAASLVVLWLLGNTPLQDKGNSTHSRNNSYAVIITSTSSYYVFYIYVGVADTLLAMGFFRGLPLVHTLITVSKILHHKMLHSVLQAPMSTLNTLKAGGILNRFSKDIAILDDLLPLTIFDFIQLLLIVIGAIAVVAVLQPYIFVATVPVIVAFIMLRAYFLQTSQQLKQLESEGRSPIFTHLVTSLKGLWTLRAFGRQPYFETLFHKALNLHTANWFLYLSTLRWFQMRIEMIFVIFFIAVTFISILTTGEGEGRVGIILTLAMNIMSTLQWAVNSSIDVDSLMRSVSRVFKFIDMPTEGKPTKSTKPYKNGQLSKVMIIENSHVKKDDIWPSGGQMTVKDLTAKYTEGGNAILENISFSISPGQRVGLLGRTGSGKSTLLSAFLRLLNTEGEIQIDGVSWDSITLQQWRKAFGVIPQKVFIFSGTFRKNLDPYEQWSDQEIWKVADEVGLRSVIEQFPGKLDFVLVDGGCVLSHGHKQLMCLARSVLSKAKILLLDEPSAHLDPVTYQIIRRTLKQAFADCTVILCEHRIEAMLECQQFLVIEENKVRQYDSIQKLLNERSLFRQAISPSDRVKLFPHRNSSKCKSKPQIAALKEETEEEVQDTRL

For `CC(C)C[C@H]1C(=O)N2CCN(C3CC3)C[C@@H]2C(=O)N[C@H](Cc2ccccc2)COc2cnc3ccccc3c2C(=O)N[C@H](C(=O)NCCc2ccc3c(c2)OCO3)CC(=O)N1C` [Example 393, (9S,13S,19aR,22R)-N-(2-(benzo[d][1,3]dioxol-5-yl)ethyl)-22-benzyl-18-cyclopropyl-13-isobutyl-12-methyl-7,11,14,20-tetraoxo-7,8,9,10,11,12,13,14,17,18,19,19a,20,21,22,23-hexadecahydro-16H-pyrazino[2′,11:6,7][1]oxa[4,7,10,14]tetraazacycloheptadecino[17,16-c]quinoline-9-carboxamide], the EC50 under setting [1] amounted to 118 nM. The Emax under setting [2] is 314%.

As to `CC(C)C[C@H]1C(=O)N2CCN(C3CCC3)C[C@H]2C(=O)N[C@H](Cc2ccccc2)COc2cnc3ccccc3c2C(=O)N[C@H](C(=O)NCCc2ccc3c(c2)OCO3)CC(=O)N1C` [Example 394, (9S,13S,19aS,22R)-N-(2-(benzo[d][1,3]dioxol-5-yl)ethyl)-22-benzyl-18-cyclobutyl-13-isobutyl-12-methyl-], the EC50 under setting [1] was found to be 262 nM. Further, the Emax under setting [2] worked out at 151%.

`CC(C)C[C@H]1C(=O)N2CCN(C3CCC3)C[C@@H]2C(=O)N[C@H](Cc2ccccc2)COc2cnc3ccccc3c2C(=O)N[C@H](C(=O)NCCc2ccc3c(c2)OCO3)CC(=O)N1C` [Example 395, (9S,13S,19aR,22R)-N-(2-(benzo[d][1,3]dioxol-5-yl)ethyl)-22-benzyl-18-cyclobutyl-13-isobutyl-12-methyl-7,11,14,20-tetraoxo-7,8,9,10,11,12,13,14,17,18,19,19a,20,21,22,23-hexadecahydro-16H-pyrazino[2′,11:6,7][1]oxa[4,7,10,14]tetraazacycloheptadecino[17,16-c]quinoline-9-carboxamide]: the EC50 under setting [1] is 110 nM. Also, the Emax under setting [2] worked out at 316%.

With `COCCCN1C(=O)[C@H](CC(C)C)N(C)C(=O)C[C@@H](C(=O)NCCc2cccc(OC)c2)NC(=O)c2c(ccc3ccccc23)OC[C@@H](Cc2ccccc2)NC(=O)C12CC2` [Example 396, (3′S,7′S,13′R)-13′-benzyl-7′-isobutyl-N-(3-methoxyphenethyl)-9′-(3-methoxypropyl)-6′-methyl-1′,5′,8′,11′-tetraoxo-2′,3′,4′,5′,6′,7′,8′,9′,11′,12′,13′,14′-dodecahydro-1′H-spiro[cyclopropane-1,10′-naphtho[1,2-p][1]oxa[4,7,10,14]tetraazacycloheptadecine]-3′-carboxamide], the EC50 under setting [1] was found to be 241 nM. The Emax under setting [2] is 190%.

For the molecule `CCOc1cccc(CCNC(=O)[C@@H]2CC(=O)N(C)[C@@H](CC(C)C)C(=O)N3CCOC[C@@H]3C(=O)N[C@H](Cc3ccccc3)COc3ccc4ccccc4c3C(=O)N2)c1` [Example 397, (4aR,7R,18S,22S)-7-benzyl-N-(3-ethoxyphenethyl)-22-isobutyl-21-methyl-5,16,20,23-tetraoxo-1,2,4,4a,5,6,7,8,16,17,18,19,20,21,22,23-hexadecahydronaphtho[1,2-p][1,4]oxazino[3,4-f][1]oxa[4,7,10,14]tetraazacycloheptadecine-18-carboxamide], under setting [1], the EC50 turned out to be 262 nM. Also, the maximum response (Emax) under setting [2] turned out to be 207%.

Consider `CC(C)C[C@H]1C(=O)N2CCN(C3CC3)C[C@@H]2C(=O)N[C@H](Cc2ccccc2)COc2cnc3ccccc3c2C(=O)N[C@H](C(=O)NCCc2cccc(OC(F)F)c2)CC(=O)N1C` [Example 398, (9S,13S,19aR,22R)-22-benzyl-18-cyclopropyl-N-(3-(difluoromethoxy)phenethyl)-13-isobutyl-12-methyl-7,11,14,20-tetraoxo-7,8,9,10,11,12,13,14,17,18,19,19a,20,21,22,23-hexadecahydro-16H-pyrazino[2′,11:6,7][1]oxa[4,7,10,14]tetraazacycloheptadecino[17,16-c]quinoline-9-carboxamide], for which the EC50 under setting [3] worked out at 125 nM. Also, under setting [4], the Emax turned out to be 280%.

Consider `CC(C)C[C@H]1C(=O)N2CCN(C3CC3)C[C@H]2C(=O)N[C@H](Cc2ccccc2)COc2cnc3ccccc3c2C(=O)N[C@H](C(=O)NCCc2cccc(OC(F)F)c2)CC(=O)N1C` [Example 399, (9S,13S,19aS,22R)-22-benzyl-18-cyclopropyl-N-(3-(difluoromethoxy)phenethyl)-13-isobutyl-12-methyl-7,11,14,20-tetraoxo-7,8,9,10,11,12,13,14,17,18,19,19a,20,21,22,23-hexadecahydro-16H-pyrazino[2′,1′:6,7][1]oxa[4,7,10,14]tetraazacycloheptadecino[17,16-c]quinoline-9-carboxamide], for which the concentration giving a half-maximal response (EC50) under setting [3] worked out at 506 nM. Also, the Emax under setting [4] amounted to 146%.

For `CCOc1cccc(CCNC(=O)[C@@H]2CC(=O)N(C)[C@@H](CC(C)C)C(=O)N3CCN(C4CC4)C[C@@H]3C(=O)N[C@H](Cc3ccccc3)COc3cnc4ccccc4c3C(=O)N2)c1` [Example 400, (9S,13S,19aR,22R)-22-benzyl-18-cyclopropyl-N-(3-ethoxyphenethyl)-13-isobutyl-12-methyl-7,11,14,20-tetraoxo-7,8,9,10,11,12,13,14,17,18,19,19a,20,21,22,23-hexadecahydro-16H-pyrazino[2′,11:6,7][1]oxa[4,7,10,14]tetraazacycloheptadecino[17,16-c]quinoline-9-carboxamide], the EC50 under setting [3] amounted to 164 nM. Further, the Emax under setting [4] came out at 292%.

As to `CCOc1cccc(CCNC(=O)[C@@H]2CC(=O)N(C)[C@@H](CC(C)C)C(=O)N3CCN(C4CC4)C[C@H]3C(=O)N[C@H](Cc3ccccc3)COc3cnc4ccccc4c3C(=O)N2)c1` [Example 401, (9S,13S,19aS,22R)-22-benzyl-18-cyclopropyl-N-(3-ethoxyphenethyl)-13-isobutyl-12-methyl-7,11,14,20-tetraoxo-7,8,9,10,11,12,13,14,17,18,19,19a,20,21,22,23-hexadecahydro-16H-pyrazino[2′,1′:6,7][1]oxa[4,7,10,14]tetraazacycloheptadecino[17,16-c]quinoline-9-carboxamide], the EC50 under setting [3] stood at 559 nM. The maximum response (Emax) under setting [4] was 189%.

With `Cc1cc(CCNC(=O)[C@@H]2CC(=O)N(C)[C@@H](CC(C)C)C(=O)N3CCN(C4CC4)C[C@@H]3C(=O)N[C@H](Cc3ccccc3)COc3cnc4ccccc4c3C(=O)N2)on1` [Example 402, (9S,13S,19aR,22R)-22-benzyl-18-cyclopropyl-13-isobutyl-12-methyl-N-(2-(3-methylisoxazol-5-yl)ethyl)-7,11,14,20-tetraoxo-7,8,9,10,11,12,13,14,17,18,19,19a,20,21,22,23-hexadecahydro-16H-pyrazino[2′,11:6,7][1]oxa[4,7,10,14]tetraazacycloheptadecino[17,16-c]quinoline-9-carboxamide], under setting [3], the EC50 is 305 nM. Further, the Emax under setting [4] was 314%.

Regarding `Cc1cc(CCNC(=O)[C@@H]2CC(=O)N(C)[C@@H](CC(C)C)C(=O)N3CCN(C4CC4)C[C@H]3C(=O)N[C@H](Cc3ccccc3)COc3cnc4ccccc4c3C(=O)N2)on1` [Example 403, (9S,13S,19aS,22R)-22-benzyl-18-cyclopropyl-13-isobutyl-12-methyl-N-(2-(3-methylisoxazol-5-yl)ethyl)-7,11,14,20-tetraoxo-7,8,9,10,11,12,13,14,17,18,19,19a,20,21,22,23-hexadecahydro-16H-pyrazino[2′,11:6,7][1]oxa[4,7,10,14]tetraazacycloheptadecino[17,16-c]quinoline-9-carboxamide], the concentration for a half-maximal effect (EC50) under setting [3] stood at 550 nM. For the same molecule, the Emax under setting [4] was determined as 179%.

With `CC(C)C[C@H]1C(=O)N2CCN(C3CC3)C[C@@H]2C(=O)N[C@H](Cc2ccccc2)COc2cnc3ccccc3c2C(=O)N[C@H](C(=O)NCCc2nc3c(s2)CCC3)CC(=O)N1C` [Example 404, (9S,13S,19aR,22R)-22-benzyl-18-cyclopropyl-N-(2-(5,6-dihydro-4H-cyclopenta[d]thiazol-2-yl)ethyl)-13-isobutyl-12-methyl-7,11,14,20-tetraoxo-7,8,9,10,11,12,13,14,17,18,19,19a,20,21,22,23-hexadecahydro-16H-pyrazino[2′,11:6,7][1]oxa[4,7,10,14]tetraazacycloheptadecino[17,16-c]quinoline-9-carboxamide], under setting [3], the half-maximal effective concentration (EC50) is 157 nM. Besides, the Emax under setting [4] stood at 254%.

Turning to `CC(C)C[C@H]1C(=O)N2CCN(C3CC3)C[C@H]2C(=O)N[C@H](Cc2ccccc2)COc2cnc3ccccc3c2C(=O)N[C@H](C(=O)NCCc2nc3c(s2)CCC3)CC(=O)N1C` [Example 405, (9S,13S,19aS,22R)-22-benzyl-18-cyclopropyl-N-(2-(5,6-dihydro-4H-cyclopenta[d]thiazol-2-yl)ethyl)-13-isobutyl-12-methyl-7,11,14,20-tetraoxo-7,8,9,10,11,12,13,14,17,18,19,19a,20,21,22,23-hexadecahydro-16H-pyrazino[2′,1′:6,7][1]oxa[4,7,10,14]tetraazacycloheptadecino[17,16-c]quinoline-9-carboxamide], the EC50 under setting [3] is 343 nM. Under setting [4], the Emax worked out at 171%.

On to `COc1cccc(CCNC(=O)[C@@H]2CC(=O)N(C)[C@@H](CC(C)C)C(=O)N3CCCC[C@@H]3C(=O)N[C@H](Cc3ccccc3)COc3cc4oc(C)nc4cc3C(=O)N2)c1` [Example 406, (7S,11S,21R,23aR)-21-benzyl-7-isobutyl-N-(3-methoxyphenethyl)-8,16-dimethyl-6,9,13,23-tetraoxo-1,3,4,6,7,8,9,10,11,12,13,20,21,22,23,23a-hexadecahydro-2H-oxazolo[5′,4′:4,5]benzo[1,2-p]pyrido[2,1-f][1]oxa[4,7,10,14]tetraazacycloheptadecine-11-carboxamide], for which the EC50 under setting [3] stood at 409 nM. The Emax under setting [4] came out at 173%.

For `COc1cccc(CCNC(=O)[C@@H]2CC(=O)N(C)[C@@H](CC(C)C)C(=O)N3CCOC[C@@H]3C(=O)N[C@H](Cc3ccccc3)COc3cc4oc(C)nc4cc3C(=O)N2)c1` [Example 407], the 50% effective concentration (EC50) under setting [3] is 684 nM. Further, the Emax under setting [4] turned out to be 123%.

The values above are taken from US20240208992A1, “MACROCYCLES AS CFTR MODULATORS” (Idorsia Pharmaceuticals Ltd, priority 2021, published 2024).
